The text below walks through data of patent publication US12115178B2, “Acylated active agents and methods of their use for the treatment of autoimmune disorders” (Flagship Pioneering Innovations V, Inc., priority 2018, dated 2024).

What all share (type): in vitro ADME
Series [1] is described as follows: Assay 1. Stability in Simulated Gastric Fluid (SGF). An outline of the steps: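 Compound at 1 μM final (from 1 mM DMSO stock) incubated at 37° C in SGF: NaCl medium at pH 1.6 with FaSSIF powder and 0.1 mg/mL pepsin, prepared fresh. Aliquots taken at T0 and regular intervals, quenched with equal volume acetonitrile; LC/MS gives degradation rate.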
Series [2] is described as follows: Assay 2. Stability in Simulated Intestinal Fluid (SIF). The conditions noted are these: SIF pH 6.7 with pancreatin, 1 μM, 37° C. An outline of the steps: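 Compounds at 1 µM (from 1 mM DMSO stock) were incubated at 37 °C with agitation in simulated intestinal fluid: FaSSIF in pH 6.7 phosphate buffer with pancreatin. Aliquots taken from T0 onward were quenched with acetonitrile and analyzed by LC/MS for degradation rate.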

Series [3] is described as follows: Assay 3. In vitro Colonic Material Stability Assay. The conditions noted are these: colonic material slurry, anaerobic, 1 or 10 μM.
Setting [4] is: SGF pH 1.6 with pepsin, 1 μM, 37° C.

`CCC(=O)O[C@@H]1[C@H](OC(=O)CC)COC(O)[C@@H]1OC(=O)CC` (stereo partly drawn) [Compound 105, (3R,4R,5R)-2-hydroxy-4,5-bis(propanoyloxy)oxan-3-yl propanoate]: the “Assay 1 (SGF) (% Remaining @ 1 hour)” value in series [1] (setting [4]) is listed as “C (>75% of the tested compound remaining)”. Also, the “Assay 2 (SIF) (% @ Remaining 4 hours)” value in series [2] was “B (25-75% of the tested compound remaining)”. In series [3], the “Assay 3 (% Remaining at 24 h)” value is listed as “B (25-75% of the tested compound remaining)”.

Regarding `CCC(=O)O[C@H]1[C@H](OC(=O)Cc2c[nH]c3ccccc23)OC[C@@H](OC(=O)CC)[C@H]1OC(=O)CC` [Compound 106, (2S,3R,4R,5R)-2-{[2-(1H-indol-3-yl)acetyl]oxy}-4,5-bis(propanoyloxy)oxan-3-yl propanoate], the “Assay 1 (SGF) (% Remaining @ 1 hour)” value in series [1] (setting [4]) is “C (>75% of the tested compound remaining)”. For the same molecule, in series [2], the “Assay 2 (SIF) (% @ Remaining 4 hours)” value is “A (<25% of the tested compound remaining)”. Also, in series [3], the “Assay 3 (% Remaining at 24 h)” value was “A (<25% of the tested compound remaining)”.

As to `CCC(=O)O[C@@H]1[C@@H](OC(=O)CC)[C@H](C)O[C@H](OC(=O)/C=C/c2c[nH]c3ccccc23)[C@@H]1OC(=O)CC` [Compound 107, (2R,3R,4R,5S,6S)-6-methyl-3,4,5-tris(propanoyloxy)oxan-2-yl (2E)-3-(1H-indol-3-yl)prop-2-enoate], the “Assay 1 (SGF) (% Remaining @ 1 hour)” value in series [1] (setting [4]) is recorded as “B (25-75% of the tested compound remaining)”. The “Assay 2 (SIF) (% @ Remaining 4 hours)” value in series [2] is given as “A (<25% of the tested compound remaining)”. For the same molecule, the “Assay 3 (% Remaining at 24 h)” value in series [3] was “B (25-75% of the tested compound remaining)”.

In the case of `CCC(=O)O[C@@H]1[C@@H](OC(=O)CC)[C@@H](OC(=O)Cc2c[nH]c3ccccc23)OC[C@@H]1OC(=O)CC` [Compound 108, (3S,4S,5R,6R)-6-{[2-(1H-indol-3-yl)acetyl]oxy}-4,5-bis(propanoyloxy)oxan-3-yl propanoate], in series [1] (setting [4]), the “Assay 1 (SGF) (% Remaining @ 1 hour)” value is given as “C (>75% of the tested compound remaining)”. Further, the “Assay 2 (SIF) (% @ Remaining 4 hours)” value in series [2] is reported as “A (<25% of the tested compound remaining)”. In series [3], the “Assay 3 (% Remaining at 24 h)” value was “A (<25% of the tested compound remaining)”.

On to `CCC(=O)OC[C@H]1O[C@H](OC(=O)CCc2c[nH]c3ccccc23)[C@H](OC(=O)CC)[C@@H](OC(=O)CC)[C@@H]1OC(=O)CC` [Compound 109, [(2R,3R,4S,5R,6R)-6-{[3-(1H-indol-3-yl)propanoyl]oxy}-3,4,5-tris(propanoyloxy)oxan-2-yl]methyl propanoate], for which the “Assay 1 (SGF) (% Remaining @ 1 hour)” value in series [1] (setting [4]) is “C (>75% of the tested compound remaining)”. The “Assay 2 (SIF) (% @ Remaining 4 hours)” value in series [2] is “A (<25% of the tested compound remaining)”. Moreover, the “Assay 3 (% Remaining at 24 h)” value in series [3] is recorded as “A (<25% of the tested compound remaining)”.

On to `CCC(=O)OC[C@H]1O[C@@H](OC(=O)Cc2c[nH]c3ccccc23)[C@H](OC(=O)CC)[C@@H](OC(=O)CC)[C@@H]1OC(=O)CC` [Compound 111, [(2R,3R,4S,5R,6S)-6-{[2-(1H-indol-3-yl)acetyl]oxy}-3,4,5-tris(propanoyloxy)oxan-2-yl]methyl propanoate], for which the “Assay 1 (SGF) (% Remaining @ 1 hour)” value in series [1] (setting [4]) is “C (>75% of the tested compound remaining)”. Further, in series [2], the “Assay 2 (SIF) (% @ Remaining 4 hours)” value was “A (<25% of the tested compound remaining)”. Moreover, the “Assay 3 (% Remaining at 24 h)” value in series [3] is “A (<25% of the tested compound remaining)”.

With `CCC(=O)OC[C@H]1O[C@@H](OC(=O)CCc2c[nH]c3ccccc23)[C@H](OC(=O)CC)[C@@H](OC(=O)CC)[C@@H]1OC(=O)CC` [Compound 112, [(2R,3R,4S,5R,6S)-6-{[3-(1H-indol-3-yl)propanoyl]oxy}-3,4,5-tris(propanoyloxy)oxan-2-yl]methyl propanoate], the “Assay 1 (SGF) (% Remaining @ 1 hour)” value in series [1] (setting [4]) is “C (>75% of the tested compound remaining)”. Moreover, in series [2], the “Assay 2 (SIF) (% @ Remaining 4 hours)” value is reported as “A (<25% of the tested compound remaining)”. Also, the “Assay 3 (% Remaining at 24 h)” value in series [3] is reported as “A (<25% of the tested compound remaining)”.

With `CCC(=O)O[C@@H]1[C@@H](OC(=O)CC)[C@@H](OC(=O)CC)C(O)O[C@H]1C` (stereo partly drawn) [Compound 113, (3R,4R,5S,6S)-2-hydroxy-6-methyl-4,5-bis(propanoyloxy)oxan-3-yl propanoate], the “Assay 1 (SGF) (% Remaining @ 1 hour)” value in series [1] (setting [4]) is listed as “C (>75% of the tested compound remaining)”. Also, the “Assay 2 (SIF) (% @ Remaining 4 hours)” value in series [2] was “A (<25% of the tested compound remaining)”. For the same molecule, the “Assay 3 (% Remaining at 24 h)” value in series [3] is listed as “C (>75% of the tested compound remaining)”.

Consider `CCC(=O)OC[C@H]1O[C@H](OC(=O)Cc2c[nH]c3ccccc23)[C@H](OC(=O)CC)[C@@H](OC(=O)CC)[C@@H]1OC(=O)CC` [Compound 114, [(2R,3R,4S,5R,6R)-6-{[2-(1H-indol-3-yl)acetyl]oxy}-3,4,5-tris(propanoyloxy)oxan-2-yl]methyl propanoate], for which the “Assay 1 (SGF) (% Remaining @ 1 hour)” value in series [1] (setting [4]) is “C (>75% of the tested compound remaining)”. Moreover, the “Assay 2 (SIF) (% @ Remaining 4 hours)” value in series [2] was “A (<25% of the tested compound remaining)”. Further, the “Assay 3 (% Remaining at 24 h)” value in series [3] was “A (<25% of the tested compound remaining)”.

In the case of `CCC(=O)O[C@@H]1[C@@H](OC(=O)CC)[C@H](C)O[C@@H](OC(=O)Cc2c[nH]c3ccccc23)[C@@H]1OC(=O)CC` [Compound 115, (2S,3R,4R,5S,6S)-2-{[2-(1H-indol-3-yl)acetyl]oxy}-6-methyl-4,5-bis(propanoyloxy)oxan-3-yl propanoate], the “Assay 1 (SGF) (% Remaining @ 1 hour)” value in series [1] (setting [4]) is “C (>75% of the tested compound remaining)”. The “Assay 2 (SIF) (% @ Remaining 4 hours)” value in series [2] is listed as “A (<25% of the tested compound remaining)”. Also, the “Assay 3 (% Remaining at 24 h)” value in series [3] was “A (<25% of the tested compound remaining)”.

With `CCC(=O)O[C@@H]1[C@@H](OC(=O)CC)[C@@H](OC(=O)Cc2c[nH]c3ccccc23)OC[C@H]1OC(=O)CC` [Compound 117, (2R,3R,4S,5R)-2-{[2-(1H-indol-3-yl)acetyl]oxy}-4,5-bis(propanoyloxy)oxan-3-yl propanoate], the “Assay 1 (SGF) (% Remaining @ 1 hour)” value in series [1] (setting [4]) was “C (>75% of the tested compound remaining)”. The “Assay 2 (SIF) (% @ Remaining 4 hours)” value in series [2] is recorded as “A (<25% of the tested compound remaining)”. Also, the “Assay 3 (% Remaining at 24 h)” value in series [3] is listed as “A (<25% of the tested compound remaining)”.

For the molecule `CCC(=O)O[C@H]1[C@H](OC(=O)CC)[C@H](OC(=O)CCc2c[nH]c3ccccc23)O[C@@H](C)[C@H]1OC(=O)CC` [Compound 123, (2S,3S,4R,5R,6S)-6-methyl-3,4,5-tris(propanoyloxy)oxan-2-yl 3-(1H-indol-3-yl)propanoate], the “Assay 1 (SGF) (% Remaining @ 1 hour)” value is given as “C (>75% of the tested compound remaining)” in series [1] (Batch 1, SGF) and “B (25-75% of the tested compound remaining)” in series [1] (Batch 2, SGF). Besides, the “Assay 2 (SIF) (% @ Remaining 4 hours)” value in series [2] is reported as “C (>75% of the tested compound remaining)”. The “Assay 3 (% Remaining at 24 h)” value in series [3] is “A (<25% of the tested compound remaining)”.

On to `CCC(=O)O[C@@H]1[C@@H](OC(=O)CC)[C@@H](OC(=O)CCc2c[nH]c3ccccc23)OC[C@@H]1OC(=O)CC` [Compound 126, (2R,3R,4S,5S)-3,4,5-tris(propanoyloxy)oxan-2-yl 3-(1H-indol-3-yl)propanoate], for which the “Assay 1 (SGF) (% Remaining @ 1 hour)” value in series [1] (setting [4]) is given as “C (>75% of the tested compound remaining)”. Further, the “Assay 2 (SIF) (% @ Remaining 4 hours)” value in series [2] is reported as “A (<25% of the tested compound remaining)”. Moreover, in series [3], the “Assay 3 (% Remaining at 24 h)” value is given as “A (<25% of the tested compound remaining)”.

Consider `O=C(CCc1c[nH]c2ccccc12)O[C@H]1OC[C@H](OC(=O)CCc2c[nH]c3ccccc23)[C@H](OC(=O)CCc2c[nH]c3ccccc23)[C@H]1OC(=O)CCc1c[nH]c2ccccc12` [Compound 149, (2R,3R,4S,5S)-3,4,5-tris({[3-(1H-indol-3-yl)propanoyl]oxy})oxan-2-yl 3-(1H-indol-3-yl)propanoate], for which the “Assay 1 (SGF) (% Remaining @ 1 hour)” value in series [1] (setting [4]) is “B (25-75% of the tested compound remaining)”. In series [2], the “Assay 2 (SIF) (% @ Remaining 4 hours)” value is reported as “A (<25% of the tested compound remaining)”. Also, the “Assay 3 (% Remaining at 24 h)” value in series [3] is reported as “A (<25% of the tested compound remaining)”.

Take `CO[C@H]1O[C@H](COC(C)=O)[C@@H](OC(C)=O)[C@H](OC(C)=O)[C@@H]1OC(C)=O` [Compound 161, (2R,3R,4S,5S,6S)-2-(acetoxymethyl)-6-methoxytetrahydro-2H-pyran-3,4,5-triyl triacetate]: in series [1] (setting [4]), the “Assay 1 (SGF) (% Remaining @ 1 hour)” value is reported as “C (>75% of the tested compound remaining)”. Moreover, in series [2], the “Assay 2 (SIF) (% @ Remaining 4 hours)” value is “C (>75% of the tested compound remaining)”. For the same molecule, in series [3], the “Assay 3 (% Remaining at 24 h)” value is given as “B (25-75% of the tested compound remaining)”.

As for `CC(=O)OC[C@H]1O[C@@H](OC(C)=O)[C@H](N)[C@@H](OC(C)=O)[C@@H]1OC(C)=O` [Compound 162, (2S,3R,4R,5S,6R)-6-(acetoxymethyl)-3-aminotetrahydro-2H-pyran-2,4,5-triyl triacetate], the “Assay 1 (SGF) (% Remaining @ 1 hour)” value in series [1] (setting [4]) is recorded as “C (>75% of the tested compound remaining)”. In series [2], the “Assay 2 (SIF) (% @ Remaining 4 hours)” value is given as “A (<25% of the tested compound remaining)”. Further, the “Assay 3 (% Remaining at 24 h)” value in series [3] is “C (>75% of the tested compound remaining)”.

Turning to `CC(=O)O[C@H]1O[C@H](C(=O)O)[C@@H](OC(C)=O)[C@H](OC(C)=O)[C@H]1OC(C)=O` [Compound 163, (2S,3S,4S,5R,6R)-3,4,5,6-tetraacetoxytetrahydro-2H-pyran-2-carboxylic acid], the “Assay 1 (SGF) (% Remaining @ 1 hour)” value in series [1] (setting [4]) was “C (>75% of the tested compound remaining)”. Besides, in series [2], the “Assay 2 (SIF) (% @ Remaining 4 hours)” value is “C (>75% of the tested compound remaining)”. For the same molecule, in series [3], the “Assay 3 (% Remaining at 24 h)” value was “B (25-75% of the tested compound remaining)”.

Consider `CCC(=O)Oc1cc(OC(=O)CC)c2c(=O)c(O)c(-c3ccc(OC(=O)CC)c(OC(=O)CC)c3)oc2c1` [Compound 165, 2-[3,4-bis(propanoyloxy)phenyl]-3-hydroxy-4-oxo-7-(propanoyloxy)-4H-chromen-5-yl propanoate], for which the “Assay 1 (SGF) (% Remaining @ 1 hour)” value in series [1] (setting [4]) was “B (25-75% of the tested compound remaining)”. The “Assay 2 (SIF) (% @ Remaining 4 hours)” value in series [2] is “A (<25% of the tested compound remaining)”. Moreover, the “Assay 3 (% Remaining at 24 h)” value in series [3] is given as “A (<25% of the tested compound remaining)”.
